One molecule from paper PMC6696315, “Inhibiting Acetylcholinesterase to Activate Pleiotropic Prodrugs with Therapeutic Interest in Alzheimer’s Disease” (Molecules, 2019) can be followed below.

Data set [1] can be described thus: Parallel artificial membrane permeability assay (PAMPA-BBB). As to the method:
The ability of carbamate 20 to cross the BBB was assessed using a parallel artificial membrane permeability assay experiment. […] The parallel artificial membrane permeability assay (PAMPA) blood–brain barrier (BBB) experiments were conducted using the Pampa Explorer Kit (Pion Inc., Billerica, MA, USA) according to the protocol provided by the manufacturer. […] The PAMPA sandwich was assembled and allowed to incubate at room temperature for 4 h without stirring. The sandwich was then separated, and the UV-visible spectra were measured for both the donor and receiver wells with the microplate reader (Tecan Infinit M200).
(In general: In PAMPA a lipid-coated filter parts donor from acceptor wells.)

Data set [2] deals with mice. Nature of the data set: CNS-activity and acute toxicity test. The following applies: mice, IP. As to the method: (§1) Animals. Adult male NMRI mice (3 months old, weighing 35–40 g) from Janvier labs (Le Genest-Saint-Isle, France) were used to perform experiments. Mice were housed by ten in standard polycarbonate cages in standard controlled conditions (22 ± 2 °C, 55 ± 10% humidity) with a reversed 12 h light/dark cycle (light on at 7 pm). Food and water were available ad libitum in the home cage. All experiments were conducted (between 9 am and 3 pm) during the active–dark phase of the cycle and were in agreement with the European Directives and French law on animal experimentation (personal authorization n° 14–17 for MB and 14–60 for TF).
(§2) CNS-activity and acute toxicity test. Behavioral and neurological changes induced by graded doses (1, 10, 100 mg/kg) of the tested derivatives were evaluated in mice, in groups of four, by a standardized observation technique at different times (30 min, 3 and 24 h) after intraperitoneal administration. […] The approximate DL50 of the compounds were also calculated through the quantification of mortality after 24 h. Amphetamine (2 mg/kg) and chlorpromazine (10 mg/kg) were used as the stimulant and depressive references, respectively.

The nature of data set [3]: CNS-activity and acute toxicity test. The conditions noted are these: male, NMRI, mouse, in vivo, ip. As to the method:
as §1, §2

In data set [4] the target is AChE (Homo sapiens, UniProt P22303). Nature of the data set: AChE inhibition, Ellman assay. The following applies: (h)AChE IC50, Ellman assay; mean ± SEM of at least two experiments. It is filed as biochemical. Set-up: AChE from human erythrocytes; purchased Sigma Aldrich; host or cells: human erythrocytes (natural source). The procedure: All the synthesized phenolic derivatives and their carbamates were evaluated as potential inhibitors of human AChE, using the Ellman assay, as well as potential ligands for human 5-HT4R using a radioligand displacement assay.
The inhibitory capacity of compounds on AChE biological activity was evaluated through the use of the spectrometric method of Ellman. Acetylthiocholine iodide and 5,5-dithiobis-(2-nitrobenzoic) acid (DTNB) were purchased from Sigma Aldrich. AChE from human erythrocytes (buffered aqueous solution, ≥500 units/mg protein (BCA), Sigma Aldrich, St. Louis, MO, USA) was diluted in 20 mM HEPES buffer pH 8, 0.1% Triton X-100 such as to have enzyme solution with 0.25 unit/mL enzyme activity. In the procedure, 100 μL of 0.3 mM DTNB dissolved in a phosphate buffer with pH 7.4 were added into the 96-well plates followed by 50 μL of the test compound solution and 50 μL of enzyme (0.05 U final). After 5 min of preincubation at 25 °C, the reaction was then initiated by the injection of 50 μL of 10 mM acetylthiocholine iodide solution. […] Assays were performed with a blank containing all components except acetylthiocholine, in order to account for non-enzymatic reactions. The reaction slopes were compared and the percent inhibition due to the presence of test compounds was calculated by the following expression: 100 − (vi/v0 × 100), where vi is the rate calculated in the presence of inhibitor and v0 is the enzyme activity.
(In general: Ellman's reagent forms a yellow product with free thiols.)

The test system of data set [5] is mice. Nature of the data set: Spontaneous locomotor activity (actimeter). Format: in vivo, NMRI mice. The following applies: IP 30 min before test, 1, 3 and 10 mg/kg. The procedure:
Locomotor activity. The locomotion of mice was measured using an actimeter (Imetronic®, Pessac, France) through infrared detection. Eight individual removable polycarbonate cages (21 cm length, 7 cm wide and 12 cm high), in which each mouse was placed, were used in the actimeter. Locomotor activity was measured by recording the number of interruptions of beams of the red light over a period of 30 min through a recording system attached to the actimeter. Compound 20 was tested at 1, 3 and 10 mg/kg. Chlorpromazine (3 mg/kg) were used as depressive reference.

Data set [6] concerns mice. Nature of the data set: Spontaneous alternation (Y maze), MK801-induced deficit. It is filed as in vivo, NMRI mice. The conditions noted are these: 1 mg/kg IP 30 min before test, MK801 0.1 mg/kg SC. The procedure:
as §1
(§3) Spatial working memory. The antiamnesic activity of the tested compounds was evaluated by a reversal of deficit on spontaneous alternation behavior in the Y maze test. […] The Y maze made of grey plastic consisted of three equally-spaced arms (21-cm long, 7-cm wide with walls 15-cm high). The mouse was placed at the end of one of the arms and allowed to move freely through the maze during a 5 min session, while the sequence of arm entries was recorded by an observer. An arm entry was scored when all four feet crossed into the arm. An alternation was defined as entries into all three arms on a consecutive occasion.
(§4) Pharmacological treatments.

Data set [7] has as its system mice. Nature of the data set: Spontaneous alternation (Y maze), scopolamine-induced deficit. It is filed as in vivo, NMRI mice. The conditions noted are these: 1 mg/kg IP 30 min before test, scopolamine 0.5 mg/kg SC. The procedure:
as §1, §3, §4

SMILES strings stand for the structures.

Chain of AChE (P22303 32-617 isoform P22303-2 limits assumed): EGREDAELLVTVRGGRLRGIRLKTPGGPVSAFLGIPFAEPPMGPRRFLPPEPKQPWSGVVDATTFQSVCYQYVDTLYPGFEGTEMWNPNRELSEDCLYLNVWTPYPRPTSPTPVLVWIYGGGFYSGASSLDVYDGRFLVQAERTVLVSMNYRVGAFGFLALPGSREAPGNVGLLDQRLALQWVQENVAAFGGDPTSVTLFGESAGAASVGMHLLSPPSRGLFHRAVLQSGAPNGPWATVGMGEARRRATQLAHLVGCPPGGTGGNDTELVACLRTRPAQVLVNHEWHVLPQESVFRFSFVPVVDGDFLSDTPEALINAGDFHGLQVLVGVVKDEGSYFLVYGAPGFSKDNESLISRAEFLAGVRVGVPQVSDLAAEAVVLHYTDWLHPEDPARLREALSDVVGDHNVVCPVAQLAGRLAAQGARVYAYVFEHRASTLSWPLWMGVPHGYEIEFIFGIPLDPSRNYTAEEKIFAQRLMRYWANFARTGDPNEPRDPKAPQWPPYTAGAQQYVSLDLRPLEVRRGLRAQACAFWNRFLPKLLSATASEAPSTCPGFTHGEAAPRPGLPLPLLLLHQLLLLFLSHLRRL

What is called Papp is the rate of passage across a membrane or cell layer, normalised by area and donor concentration. Read a low Papp as slow passage. As usually defined, the LD50 is the dose at which mortality reaches 50%. One may read the IC50 as the concentration that gives 50% inhibition. A lower IC50 goes with greater potency. The molecule `CCN(C)C(=O)Oc1cccc(CN2CCC(CCC(=O)c3cc(Cl)c(N)cc3OC)CC2)c1.O=C(O)/C=C/C(=O)O` [Compound 20, [3-[[4-[3-(4-Amino-5-chloro-2-methoxyphenyl)-3-oxopropyl]-1-piperidyl]methyl]phenyl] N-ethyl-N-methyl-carbamate fumaric acid salt] had a LogPe in data set [1] (PAMPA effective permeability coefficient, pH 7.4, 4 h) of −4.39. In addition, the Papp at 4 h, 100 μM in data set [1] (PAMPA, pH 7.4) is 40.7 ×10⁻⁶ cm/s. Also, the “brain penetration (BBB crossing)” value in data set [1] (classification from PAMPA) is recorded as “good brain penetration”. In addition, the “Symptoms (Subtoxic Doses)” value in data set [2] (100 mg/kg) is reported as 100, tremors, hypoactivity full recovery after 24h; in data set [2] (1–10 mg/kg) it was 1–10, no symptoms. Moreover, the LD50 at 24 h in data set [3] was over 100 mg/kg. Further, in data set [4], it took 6.07 ± 0.404 µM to reach half-maximal inhibition (IC50). In data set [5], the “spontaneous locomotor activity versus NaCl” value is “none of the tested doses of compound 20 (1, 3 and 10 mg/kg) statically modified spontaneous locomotor activity”. The “percentage of spontaneous alternation” value in data set [6] and in data set [7] was “significantly different from the value of the chance level” each time.
